Laboratory results: patent US20260365653A1, “IRREVERSIBLE MUTEGFR INHIBITORS” (Bayer Aktiengesellschaft, priority 2022, published 2026)

Experiments:
[1] = biological target: T1, mutEGFR (D770_N771insSVD) (Homo sapiens, UniProt P00533, DUP768-770); assay: Exon20-Mutant-EGFR (D770_N771insSVD) kinase assay (TR-FRET); assay type: biochemical; details: mutEGFR (D770_N771insSVD) kinase assay IC50, Table 2a; D770_N771insSVD; 2 mM ATP
T1 construct: GST-EGFR #3 (SVD between D770 and N771); made in house; host or cells: Sf9 insect cells (baculovirus)
T1 sequence (P00533 with tags, fused parts or gaps DUP768-770): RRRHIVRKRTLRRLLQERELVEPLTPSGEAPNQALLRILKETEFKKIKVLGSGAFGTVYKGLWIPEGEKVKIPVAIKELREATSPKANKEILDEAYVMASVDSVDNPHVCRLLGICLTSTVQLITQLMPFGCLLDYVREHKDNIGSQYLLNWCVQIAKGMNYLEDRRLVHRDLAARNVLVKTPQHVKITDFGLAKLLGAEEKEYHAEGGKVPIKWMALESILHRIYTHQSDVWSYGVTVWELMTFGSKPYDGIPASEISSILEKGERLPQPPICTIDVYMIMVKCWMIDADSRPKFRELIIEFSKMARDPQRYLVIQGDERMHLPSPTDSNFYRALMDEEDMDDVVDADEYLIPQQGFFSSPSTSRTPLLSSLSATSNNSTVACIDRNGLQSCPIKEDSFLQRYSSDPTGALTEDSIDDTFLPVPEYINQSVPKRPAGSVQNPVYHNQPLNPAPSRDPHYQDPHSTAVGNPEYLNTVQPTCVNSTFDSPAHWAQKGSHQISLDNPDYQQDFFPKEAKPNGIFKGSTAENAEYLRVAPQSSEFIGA

[2] = biological target: T2, mutEGFR (D770_N771insNPG, T790) (Homo sapiens, UniProt P00533, INS770NPG/T790M); assay: mutEGFR (D770_N771insNPG, T790) kinase assay; assay type: biochemical; details: Table 2a, D770_N771insNPG
T2 construct: exact insNPG construct not described; in-house EGFR proteins were N-terminal GST fusions from baculovirus/insect cells (borders R669-A1210 given only for WT, insSVD, insASV)
T2 sequence (P00533 with tags, fused parts or gaps INS770NPG/T790M limits assumed): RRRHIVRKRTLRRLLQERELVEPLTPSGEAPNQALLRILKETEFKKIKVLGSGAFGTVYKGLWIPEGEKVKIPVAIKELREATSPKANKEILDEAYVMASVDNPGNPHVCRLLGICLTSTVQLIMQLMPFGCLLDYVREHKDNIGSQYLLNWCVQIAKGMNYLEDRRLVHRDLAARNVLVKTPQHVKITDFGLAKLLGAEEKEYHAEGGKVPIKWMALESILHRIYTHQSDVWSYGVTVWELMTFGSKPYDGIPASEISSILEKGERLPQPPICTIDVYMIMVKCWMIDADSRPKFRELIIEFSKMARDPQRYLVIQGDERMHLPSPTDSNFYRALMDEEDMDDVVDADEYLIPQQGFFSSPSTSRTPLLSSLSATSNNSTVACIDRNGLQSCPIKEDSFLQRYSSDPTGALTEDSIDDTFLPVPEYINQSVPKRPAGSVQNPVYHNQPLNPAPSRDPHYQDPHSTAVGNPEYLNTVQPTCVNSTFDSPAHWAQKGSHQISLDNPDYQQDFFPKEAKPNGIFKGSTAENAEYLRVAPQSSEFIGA
Description: The different EGFR proteins used in the biochemical kinase activity inhibition assays were generated inhouse by expression in insect cells using Baculo Virus system and subsequent purification as described in the following paragraphs.
The cDNAs encoding the various protein sequences from human EGFR human (P00533) were optimized for expression in eukaryotic cells and synthesized by the GeneArt Technology at Life Technologies.

BA/F3 (insSVD) cells = assay: Ba/F3-EGFR-insSVD cell survival assay (Cell Titer-Glo); assay type: cell-based; details: Mus musculus, BaF3, 48 h, Table 3a, cell survival, Cell Titer-Glo, with 10 ng/ml EGF, without IL-3
Experimental: Cellular Data Description (WT, insSVD, insSVD T790M) 293T cells from ATCC were transfected with pBABEpuro expression constructs for WT EGFR or EGFR-insSVD, or EGFR-insSVD T790M, and pCL-Eco packaging vector using Fugene-6 transfection reagent from Promega. Plates were incubated at 37° C. for 48 h. Retrovirus was harvested by filtering the media supernatant through a 0.45 μm filter.
Ba/F3 cells purchased from DSMZ were grown in RPMI+10% FBS+10 ng/ml IL-3 and infected with filtered retroviral supernatant at a 1:2 dilution. Polybrene was added to a concentration of 8 μg/mL, plates were spun for 90 min, and incubated for 16 h at 37° C. 2 μg/mL puromycin was added to the infected cells 24 h after infection and cells were continually grown in the presence of puromycin and 10 ng/ml IL-3. Following stably expressing Ba/F3 cell lines were generated: Ba/F3-EGFR-WT, Ba/F3-EGFR-insSVD, Ba/F3-EGFR-insSVD T790M, (Ba/F3-vector-control).
For cell survival assays, Ba/F3 cells were grown to a density of 1-2 million cells per mL, spun down and resuspended in media without IL-3, and replated at a concentration of 200,000-500,000 cells per mL. The cells ectopically expressing WT EGFR, EGFR-insSVD, or EGFR-insSVD T790M were plated with 10 ng/ml Millipore Culture grade EGF. The cells ectopically expressing pBABEpuro empty vector were plated with 10 ng/mL IL-3.
2 days later, cells were plated in 50 µL in a 384 well plate at a concentration of 4000 cells per well for cells assayed in the absence of IL-3 and 2000 cells per well for cells assayed in the presence of IL-3. 100 nL of compound was added to each well using a 100 nL pin head, and plates were incubated at 37° C. for 48 h.
Cell viability was measured by adding 20 μL of Cell Titer-Glo Luminescent Cell Viability Reagent diluted 1:3 in PBS. Plates were sealed with Perkin Elmer Top-Seal, inverted several times to mix, and immediately centrifuged at 1000 rpm for 2 min. Plates were incubated in low light conditions for 8-10 min and luminescence was measured.

IC50 [1] [nM] | IC50 [2] [nM] | Structure (SMILES) | IC50 (BA/F3 (insSVD) cells) [nM]
3.76 | 13 | CN(C)C/C=C/C(=O)N1Cc2c(-c3ccncc3)c(-c3ccc(F)cc3)nn2C(CC(=O)N(C)C)C1 (racemic) [Example 222, 2-[(7RS)-5-[(2E)-4-(dimethylamino)but-2-enoyl]-2-(4-fluorophenyl)-3-(pyridin-4-yl)-4,5,6,7-tetrahydropyrazolo[1,5-a]pyrazin-7-yl]-N,N-dimethylacetamide] | 658
0.724 | 2.2 | C=CC(=O)N1Cc2c(-c3ccncc3)c(-c3ccc(OC)cc3)nn2CC1C (racemic) [Example 228, 1-[(6RS)-2-(4-methoxyphenyl)-6-methyl-3-(pyridin-4-yl)-6,7-dihydropyrazolo[1,5-a]pyrazin-5(4H)-yl]prop-2-en-1-one] | 44.6
0.188 | 0.351 | C=CC(=O)N1Cc2c(-c3ccncc3)c(-c3ccc4cc(F)sc4c3)nn2CC1C (racemic) [Example 229, 1-[(RS)-2-(2-fluoro-1-benzothiophen-6-yl)-6-methyl-3-(pyridin-4-yl)-6,7-dihydropyrazolo[1,5-a]pyrazin-5(4H)-yl]prop-2-en-1-one] | 17.1
0.416 | 1.04 | C=CC(=O)N1Cc2c(-c3ccncc3)c(-c3ccc(C(F)(F)F)cc3F)nn2CC1C (racemic) [Example 230, 1-[(6RS)-2-[2-fluoro-4-(trifluoromethyl)phenyl]-6-methyl-3-(pyridin-4-yl)-6,7-dihydropyrazolo[1,5-a]pyrazin-5(4H)-yl]prop-2-en-1-one] | 15.6
0.502 | 1.1 | C=CC(=O)N1Cc2c(-c3ccncc3)c(-c3ccc(OC)cc3F)nn2CC1C (racemic) [Example 231, 1-[(RS)-2-(2-fluoro-4-methoxyphenyl)-6-methyl-3-(pyridin-4-yl)-6,7-dihydropyrazolo[1,5-a]pyrazin-5(4H)-yl]prop-2-en-1-one] | 65.9
0.116 | 0.164 | C=CC(=O)N1Cc2c(-c3ccncc3)c(-c3ccc4ccccc4c3)nn2CC1C (racemic) [Example 232, 1-[(RS)-6-methyl-2-(naphthalen-2-yl)-3-(pyridin-4-yl)-6,7-dihydropyrazolo[1,5-a]pyrazin-5(4H)-yl]prop-2-en-1-one] | 15.5
0.258 | 0.467 | C=CC(=O)N1Cc2c(-c3ccncc3)c(-c3ccc4cc(Cl)sc4c3)nn2CC1C (racemic) [Example 233, 1-[(RS)-2-(2-chloro-1-benzothiophen-6-yl)-6-methyl-3-(pyridin-4-yl)-6,7-dihydropyrazolo[1,5-a]pyrazin-5(4H)-yl]prop-2-en-1-one] | 48.7
0.17 | 0.331 | C=CC(=O)N1Cc2c(-c3ccncc3)c(-c3ccc4ccsc4c3)nn2CC1C (racemic) [Example 234, 1-[(6RS)-2-(1-benzothiophen-6-yl)-6-methyl-3-(pyridin-4-yl)-6,7-dihydropyrazolo[1,5-a]pyrazin-5(4H)-yl]prop-2-en-1-one] | 122
0.18 | 0.592 | CC1Cn2nc(-c3ccc(Cl)cc3F)c(-c3ccncc3)c2CN1C(=O)/C=C/CN(C)C (racemic) [Example 235, (2E)-1-[(RS)-2-(4-chloro-2-fluorophenyl)-6-methyl-3-(pyridin-4-yl)-6,7-dihydropyrazolo[1,5-a]pyrazin-5(4H)-yl]-4-(dimethylamino)but-2-en-1-one] | 24.1
0.181 | 0.289 | CC1Cn2nc(-c3ccc4ccsc4c3)c(-c3ccncc3)c2CN1C(=O)/C=C/CN(C)C (racemic) [Example 236, (2E)-1-[(RS)-2-(1-benzothiophen-6-yl)-6-methyl-3-(pyridin-4-yl)-6,7-dihydropyrazolo[1,5-a]pyrazin-5(4H)-yl]-4-(dimethylamino)but-2-en-1-one] | 256
